Measured values: US20240140986A1, “SYNTHETIC URSOLIC ACID DERIVATIVES AND METHODS OF USE THEREOF” (REATA PHARMACEUTICALS, INC., priority 2021, published 2024)
Like-named read-outs stand apart in the source and are kept apart here.

What was measured:
[1] = test system: IFNγ-induced NO production in RAW 264.7 cells; assay: Nitric Oxide Suppression Assay (IFNγ-induced NO, Griess nitrite readout); type: cell-based, mouse; conditions: for IC50: Mus musculus; for Avg NO IC50 Relative to RTA402 (fold): Table 2, ratio to RTA402
Protocol: Tissue Culture: RAW 264.7, a mouse macrophage cell line, was obtained from American Type Culture Collection (Manassas VA) and maintained in the log phase of growth in Roswell Park Memorial Institute Medium 1640 (RPMI 1640) supplemented with 10% heat inactivated fetal bovine serum and 1% penicillin-streptomycin. Cells were cultured and maintained in a humidified incubator at 37° C. under 5% C02. Cells were sub-cultured every 2-4 days. All cell culture supplies were obtained from Life Technologies (Grand Island, NY) and VWR (Radnor, PA).
Nitric Oxide Suppression Assay. RAW 264.7 cells were plated 1 day in advance of experimental treatments at a concentration of 30,000 cells per well onto Falcon-96 well clear bottom plates (Corning, NY) in a total volume of 200 μL per well using RPMI 1640 supplemented with 0.5% fetal bovine serum and 1% penicillin-streptomycin. The next day, cells were pretreated with compounds serially diluted from 1000×stocks. All compounds were dissolved in dimethyl sulfoxide (DMSO) usually at 10 mM stock solutions. Compounds were subsequently diluted in DMSO and RPMI 1640. Each well received a final concentration of 0.1% DMSO. Cells were pretreated for 2 hours and incubation at 37° C., followed by treatment with 20 ng/mL of interferon gamma (R&D Systems, Minneapolis, MN) per well for 24 hours. The next day, a nitrite standard was serially diluted from 100 μM to 1.6 μM in RPMI 1640. Afterwards, 50 μL of cell culture supernatant was transferred from each well into a new Falcon-96 well clear bottom plate. Nitrite was measured as surrogate for nitric oxide using Promega's Griess Detection Kit #G2930 (Madison, WI) which involves the addition of 50 μL of the provided sulfanilamide solution to each well of the transferred cell culture supernatant and standards, followed by a 10-minute incubation at room temperature. Next, 50 μL of the provided N-1-napthylethylenediamine dihydrochloride (NED) solution was added to the sulfanilamide reaction and incubated for 10 minutes at room temperature in the dark. Afterwards, air bubbles were removed using ethanol vapor and absorbance was measured using a Spectramax M2e plate reader with a wavelength set to 525 nm. Viability was assessed using WST-1 cell proliferation reagent from Roche (Basel, Switzerland). After media was removed for the Nitric Oxide suppression assay, 15 μL of WST-1 reagent was added to each well of cells. Plates were briefly mixed on an orbital shaker and the cells were incubated at 37° C. for 30-90 minutes. Absorbance was measured using a Spectramax M2e plate reader with wavelengths set to 440 nm and 700 nm.
For the ability of compounds to suppress the increase in nitric oxide release caused by interferon gamma, the absolute amount of nitrite that was produced in each well was extrapolated from the nitrite standards using a linear regression fit. All values were then normalized to the DMSO-interferon gamma treated wells and plotted as percent nitric oxide. IC50 values were calculated using Excel and/or GraphPad Prism (San Diego, CA).

[2] = test system: Nrf2 / ARE-dependent luciferase in AREc32 reporter cell line; assay: AREc32 luciferase reporter activation (Nrf2 induction); type: cell-based, human; conditions: for EC (2-fold): Homo sapiens, Arec32; for Relative Avg AREc32 EC2X Relative to RTA402 (fold): ratio to RTA402
Protocol: Effect on Ludferase Reporter Activation. Nrf2 is a transcription factor that binds to the antioxidant response element (ARE) sequence in the promoter regions of its target genes. AREc32 reporter cell line (derived from human breast carcinoma MCF7 cells) was obtained was from CXR Bioscience Limited (Dundee, UK) and cultured in DMEM (low glucose) supplemented with 10% FBS, 1% penicillin/streptomycin, and 0.8 mg/ml Geneticin (G418). This cell line is stably transfected with a luciferase reporter gene under the transcriptional control of eight copies of the rat GSTA2 ARE sequence (5′-GTGACAAAGCA-3′) (Wang et al., 2006). Expression of Firefly luciferase from this reporter plasmid is controlled by binding of Nrf2 to these ARE sequences. Measurement of ARE-dependent luciferase activity allows quantitative assessment of Nrf2 induction. AREc32 cell line has previously been used in studies characterizing different Nrf2 activators (Dinkova-Kostova & Wang, 2011; Roubalová et al., 2016; Roubalová et al, 2017; Wu et al, 2012).
The effect of several compounds disclosed herein on luciferase reporter activation was assessed in the AREc32 reporter cell line (see Table 10 and Table 11). This cell line is derived from human breast carcinoma MCF-7 cells and is stably transfected with a luciferase reporter gene under the transcriptional control of eight copies of the antioxidant response element from the rat Gsta2 gene, an Nrf2 target gene (Frilling et al., 1990). AREc32 cells were plated in black 96-well plates in 200 μL media at 20,000 cells per well. Twenty-four hours after plating, cells were treated with vehicle (DMSO) or test compounds at concentrations ranging from 0.03 to 1000 nM for nineteen hours. Media was removed and 100 μL of 1:1 mixture of the One-Glo Luciferase assay reagent and culture medium was added to each well. After incubation for 5 min at room temperature, the luminescence signal was measured on a PHERAstar plate reader. The EC2X value was determined using Excel and GraphPad Prism software. The fold increase in luminescence signal for cells treated with each concentration of compound relative to cells treated with vehicle was determined and a dose-response curve was generated. The dose-response curve was fit using nonlinear regression analysis and used to extrapolate the EC2X value. The EC2X value is defined as the concentration of test compound required to increase the luminescence signal 2-fold above levels in vehicle-treated samples.

[3] = RAW264.7, Table 2, RAW 264.7 cells, 2 h pretreatment, 20 ng/mL interferon gamma 24 h, read-out: Avg NO IC50 (nM) (Mean ± SD)
[4] = Table 2, concentration increasing luminescence 2-fold above vehicle, 19 h treatment, read-out: Avg AREc32 EC2X (nM) (Mean ± SD)
[5] = RAW264.7, Table 3, ursolic acid derivatives, read-out: Avg NO IC50 (nM) (Mean ± SD)
[6] = Table 3, ursolic acid derivatives, read-out: Avg ARE EC-2X (nM) (Mean ± SD)
[7] = RAW264.7, Table 3, oleanolic acid derivative analogs, read-out: Avg NO IC50
[8] = Table 3, oleanolic acid derivative analogs, read-out: Avg ARE EC-2X

SMILES	IC50 [1, 3] [nM]	Avg NO IC50 Relative to RTA402 (fold) [1] [fold]	EC (2-fold) [2, 4] [nM]	Relative Avg AREc32 EC2X Relative to RTA402 (fold) ([2]; Table 2)	IC50 [1, 5] [nM]	EC (2-fold) [2, 6] [nM]	IC50 [1, 7] [nM]	EC (2-fold) [2, 8] [nM]
C[C@@H]1[C@H]2[C@H]3C(=O)C=C4[C@@]5(C)C=C(C#N)C(=O)C(C)(C)[C@@H]5CC[C@@]4(C)[C@]3(C)CC[C@@]2(C=O)CC[C@H]1C [Compound T83]	4.43 ± 2.68	2.75 ± 1.67	2.37 ± 0.33	0.294 ± 0.048	–	–	–	–
C[C@@H]1[C@H]2[C@H]3C(=O)C=C4[C@@]5(C)C=C(C#N)C(=O)C(C)(C)[C@@H]5CC[C@@]4(C)[C@]3(C)CC[C@@]2(CCC(=O)N2CCC2)CC[C@H]1C [Compound T80]	2.76 ± 1.02	1.09 ± 0.03	3.72 ± 0.14	0.311 ± 0.023	–	–	–	–
C[C@@H]1[C@H]2[C@H]3C(=O)C=C4[C@@]5(C)C=C(C#N)C(=O)C(C)(C)[C@@H]5CC[C@@]4(C)[C@]3(C)CC[C@@]2(CNC(=O)C(F)F)CC[C@H]1C [Compound T28]	3.64 ± 1.69	1.15 ± 0.32	4.33 ± 1.62	0.331 ± 0.101	–	–	–	–
C[C@@H]1[C@H]2[C@H]3C(=O)C=C4[C@@]5(C)C=C(C#N)C(=O)C(C)(C)[C@@H]5CC[C@@]4(C)[C@]3(C)CC[C@@]2(CN2CCOC2)CC[C@H]1C [Compound T42]	38.2 ± 10	14.80 ± 6.91	26.3 ± 6	2.43 ± 0.39	38.2 ± 10	26.3 ± 6	–	–
Cc1noc([C@]23CC[C@@H](C)[C@H](C)[C@H]2[C@H]2C(=O)C=C4[C@@]5(C)C6O[C@@]6(C#N)C(=O)C(C)(C)[C@@H]5CC[C@@]4(C)[C@]2(C)CC3)n1 (some centres unmarked) [Compound T99]	14.8 ± 4.7	5.92 ± 0.69	10.4 ± 0.8	0.864 ± 0.046	–	–	–	–
CNC(=O)NC[C@]12CCC(C)(C)C[C@H]1[C@H]1C(=O)C=C3[C@@]4(C)C=C(C#N)C(=O)C(C)(C)[C@@H]4CC[C@@]3(C)[C@]1(C)CC2 [CC26, reference compound]	–	–	–	–	–	–	0.5	2.75
C[C@@H]1[C@H]2[C@H]3C(=O)C=C4[C@@]5(C)C=C(C#N)C(=O)C(C)(C)[C@@H]5CC[C@@]4(C)[C@]3(C)CC[C@@]2(Cn2ccnn2)CC[C@H]1C [Compound T50]	9.81 ± 2.79	3.18 ± 0.30	8.26 ± 1.39	0.666 ± 0.148	9.81 ± 2.79	8.26 ± 1.39	–	–
C[C@H]1[C@H](C)CCC23CC[C@@]4(C)[C@]5(C)CC[C@H]6C(C)(C)C(=O)C(C#N)=C[C@]6(C)C5=CC(=O)[C@]4(OC2)[C@H]13 [Compound T12]	6.75 ± 2.19	3.29 ± 0.81	9.2 ± 2.7	0.724 ± 0.074	–	–	–	–
Cc1nc([C@]23CC[C@@H](C)[C@H](C)[C@H]2[C@H]2C(=O)C=C4[C@@]5(C)C=C(C#N)C(=O)C(C)(C)[C@@H]5CC[C@@]4(C)[C@]2(C)CC3)no1 [Compound T82]	5.58 ± 0.32	3.69 ± 0.82	10 ± 3	1.01 ± 0.11	5.58 ± 0.32	10 ± 3	–	–
CCNC(=O)N[C@]12CC[C@@H](C)[C@H](C)[C@H]1[C@H]1C(=O)C=C3[C@@]4(C)C=C(C#N)C(=O)C(C)(C)[C@@H]4CC[C@@]3(C)[C@]1(C)CC2 [Compound T65]	25.5 ± 4.1	7.42 ± 3.56	12.9 ± 2	1.14 ± 0.20	–	–	–	–
COC(=O)N[C@]12CC[C@@H](C)[C@H](C)[C@H]1[C@H]1C(=O)C=C3[C@@]4(C)C=C(C#N)C(=O)C(C)(C)[C@@H]4CC[C@@]3(C)[C@]1(C)CC2 [Compound T66]	11 ± 3	4.64 ± 0.70	9.91 ± 0.25	0.857 ± 0.057	–	–	–	–
C[C@@H]1[C@H]2[C@H]3C(=O)C=C4[C@@]5(C)C=C(C#N)C(=O)C(C)(C)[C@@H]5CC[C@@]4(C)[C@]3(C)CC[C@@]2(Cn2cccn2)CC[C@H]1C [Compound T46]	32.6 ± 2.2	8.4 ± 2.7	24.1 ± 6.7	2.06 ± 0.26	–	–	–	–
Cc1nc([C@]23CCC(C)(C)C[C@H]2[C@H]2C(=O)C=C4[C@@]5(C)C=C(C#N)C(=O)C(C)(C)[C@@H]5CC[C@@]4(C)[C@]2(C)CC3)no1 [CC82, reference compound]	–	–	–	–	–	–	3.8	22.1
C[C@H]1[C@H](C)CC[C@]2(Cn3cncn3)CC[C@]3(C)C(O)(C(=O)C=C4[C@@]5(C)C=C(C#N)C(=O)C(C)(C)[C@@H]5CC[C@]43C)[C@H]12 (some centres unmarked) [Compound T48]	13.8 ± 1.5	3.66 ± 1.49	7.18 ± 1.2	0.602 ± 0.010	–	–	–	–
CCNC(=O)CC[C@]12CC[C@@H](C)[C@H](C)[C@H]1[C@H]1C(=O)C[C@@H]3[C@@]4(C)C=C(C#N)C(=O)C(C)(C)[C@@H]4CC[C@@]3(C)[C@]1(C)CC2 [Compound T103]	22.1 ± 4.2	14.60 ± 0.59	43.1 ± 10.4	4.52 ± 0.90	–	–	–	–
CC1(C)CC[C@]2(Cn3cncn3)CC[C@]3(C)[C@H](C(=O)C=C4[C@@]5(C)C=C(C#N)C(=O)C(C)(C)[C@@H]5CC[C@]43C)[C@@H]2C1 [CC47, reference compound]	–	–	–	–	–	–	1.2	10.7
CC(=O)N[C@]12CC[C@@H](C)[C@H](C)[C@H]1[C@H]1C(=O)C=C3[C@@]4(C)C=C(C#N)C(=O)C(C)(C)[C@@H]4CC[C@@]3(C)[C@]1(C)CC2 [Compound T18]	23 ± 4.1	13.7 ± 5.76	27.3 ± 5.8	1.97 ± 0.24	–	–	–	–
